Measured values reported in US10640463B2, “Chlorhexidine crystal forms and uses thereof in medicine” (Queen Mary University of London, priority 2016, dated 2020).
Values joined by “and” are separate entries in the source; they are usually repeats but may differ in a detail not shown here. Equal entries are not always repeated.

Legend:
[1] = Chlorhexidine release from PMMA resin; type: physicochemical; conditions: 5% loading, after 650 hours
Protocol: For the release study, all sample resin discs (HEMA-UDMA) containing chlorhexidine chloride compounds or chlorhexidine diacetate powder prepared in Example 5 were kept in cuvettes containing 3 ml deionized water, and kept at room temperature. And at each time point, solutions were collected for UV absorption tests (Lambda 35, Perkin Elmer, USA) and replaced with fresh deionized water.
The PMMA resin system was also tested for the release kinetics of spherical chlorhexidine chloride compounds. Specifically, PMMA resin was prepared by mixing the Simplex Rapid Liquid and powder (Kemdent, Lot: 920 758) at a weight ratio of 1:2. The self-cure process took about 15 min, and after which the mixture was filled into a Teflon mould in the same way and pressed (Mestra, Mod.030350). To incorporate the spherical chlorhexidine chloride compounds, they were previously mixed with the Simplex Rapid powder (5% weight of mixture), and the liquid was added.

[2] = Chlorhexidine release from uncoated and polyelectrolyte-encapsulated particles (UV absorption); type: physicochemical; conditions: H2O, water stored and agitated
Protocol: The content of chlorhexidine in the compound, made from 0.33M CaCl2 and 15 mg/ml chlorhexidine diacetate, was determined by UV-Vis absorption (Lambda 35, Perkin Elmer, USA). […] The chlorohexidine proportion in the spheres (0.33M CaCl2 group) was calculated to be 90%-99.9% when they were co-precipitated from 15 mg/ml chlorhexidine diacetate solution. […] However, after encapsulation polyelectrolyte flakes could be seen on the surface, with the original structure covered (FIG. 11, panel (b)). In order to measure chlorhexidine release over 400 mins, samples were water stored and agitated (Vortex-Genie 2, Germany) for the whole time period. […] There was a linear relationship between chlorhexidine release and time (r2=0.99) FIG. 11, panel (d)).

[3] = system: Aggregatibacter actinomycetemcomitans (strain-Y4); assay: MIC and MBC of chlorhexidine spheres; type: cell-based; set-up: key to MIC/MBC class at this concentration: The MIC was defined as the lowest concentration of chlorhexidine spheres that inhibited the growth of microorganism at each time point; The MBC was the lowest concentration of chlorhexidine spheres giving no observable bacterial growth; conditions: for MIC: planktonic A. actinomycetemcomitans
Protocol: (§1) The effectiveness of the chlorhexidine spheres against a panel of periodontal pathogens was evaluated by measurements of the growth (optical density) of bacterial cultures. Porphyromonas gingivalis (strain-W50), Fusobacterium nucleatum sub species polymorphum (strain-NCTC10562) and Aggregatibacter actinomycetemcomitans (strain-Y4) were grown on blood agar plates and in brain heart infusion (BHI) broth in an anaerobic environment with an atmosphere of 5% H2, 10% CO2, and 85% N2 at 37° C. for 2 days. BHI broth was pre-reduced with 5 μg/ml hemin and 5 μg/ml menadione bisulphite added. Bacterial numbers in the BHI cultures were determined and standardised by serial dilution and enumeration of colony forming units (CFUs) on agar plates. After overnight incubation, the bacterial suspensions were diluted 1:20 with fresh BHI medium to achieve an optical density of 0.1 for P. gingivalis and A. actinomycetemcomitans and 0.2 for F. nucleatum sub sp. polymorphum at 595 nm (OD595) to give approximately 6.5×10^7 colony-forming units (CFU) per ml.
(§2) Negative control (bacterial inoculum only but no chlorhexidine spheres) and blank (medium only) wells were also included. The microtiter plates were incubated for 0, 24 and 48 hours in anaerobic conditions as above and the optical density (OD) was determined at 595 nm to quantify bacterial growth. The MIC was defined as the lowest concentration of chlorhexidine spheres that inhibited the growth of microorganism at each time point. The MBC was the lowest concentration of chlorhexidine spheres giving no observable bacterial growth. MBC was determined following transfer of the microtiter well contents to micro centrifuge tubes, centrifuging to pellet the bacterial cells, washing to remove any remaining chlorhexidine spheres and incubation on blood agar plates. After incubation anaerobically growth of bacteria that had survived the treatment was recorded.

[4] = system: Porphyromonas gingivalis (strain-W50); assay: MIC and MBC of chlorhexidine spheres; type: cell-based; set-up: key to MIC/MBC class at this concentration: The MIC was defined as the lowest concentration of chlorhexidine spheres that inhibited the growth of microorganism at each time point; The MBC was the lowest concentration of chlorhexidine spheres giving no observable bacterial growth
Protocol: as §1, §2

[5] = system: Fusobacterium nucleatum sub species polymorphum (strain-NCTC10562); assay: MIC and MBC of chlorhexidine spheres; type: cell-based; set-up: key to MIC/MBC class at this concentration: The MIC was defined as the lowest concentration of chlorhexidine spheres that inhibited the growth of microorganism at each time point; The MBC was the lowest concentration of chlorhexidine spheres giving no observable bacterial growth; conditions: for MBC: F. nucleatum sub sp. polymorphum; for MIC: planktonic F. nucleatum sub sp. polymorphum
Protocol: as §1, §2

[6] = 0.00025% chlorhexidine spheres, 24 hours
[7] = 0.00025% chlorhexidine spheres, 48 hours
[8] = 0.0005% chlorhexidine spheres, 24 hours
[9] = 0.0005% chlorhexidine spheres, 48 hours
[10] = 0.001% chlorhexidine spheres, 24 hours
[11] = 0.001% chlorhexidine spheres, 48 hours
[12] = 0.002% chlorhexidine spheres, 24 hours
[13] = 0.002% chlorhexidine spheres, 48 hours
[14] = planktonic P. gingivalis, 48 hours

Cl.Cl.N=C(NCCCCCCNC(=N)NC(=N)Nc1ccc(Cl)cc1)NC(=N)Nc1ccc(Cl)cc1 [chlorhexidine spheres]
chlorhexidine released [1]: 8% | time to dissolution [2]: ≤ 1 h | MIC/MBC class at this concentration [3, 6]: MBC | MIC/MBC class at this concentration [3, 7]: MBC | MIC/MBC class at this concentration [3, 8]: MBC | MIC/MBC class at this concentration [3, 9]: MBC | MIC/MBC class at this concentration [3, 10]: MBC | MIC/MBC class at this concentration [3, 11]: MBC | concentrations with antimicrobial effect ([3]; A. actinomycetemcomitans): ≥ 0.00025% | MBC ([3]; A. actinomycetemcomitans, 24 and 48 hour cultures): 0.00025% | MIC ([3]; 24 hours): 0.00025% | MIC ([3]; 48 hours): 0.00025% | MIC/MBC class at this concentration [4, 6]: MIC | MIC/MBC class at this concentration [4, 7]: MBC | MIC/MBC class at this concentration [4, 8]: MBC | MIC/MBC class at this concentration [4, 9]: MBC | MIC/MBC class at this concentration [4, 10]: MBC | MIC/MBC class at this concentration [4, 11]: MBC | MIC/MBC class at this concentration [4, 12]: MBC | MIC/MBC class at this concentration [4, 13]: MBC | concentrations with antimicrobial effect ([4]; P. gingivalis): ≥ 0.00025% | MBC ([4]; P. gingivalis, 24 hours): 0.0005% | MIC ([4]; planktonic P. gingivalis, 24 hours): 0.00025% | MBC [4, 14]: 0.00025% | MIC [4, 14]: 0.00025% | MIC/MBC class at this concentration [5, 8]: No Inhibition | MIC/MBC class at this concentration [5, 9]: No Inhibition | MIC/MBC class at this concentration [5, 10]: MBC | MIC/MBC class at this concentration [5, 11]: MBC | MIC/MBC class at this concentration [5, 12]: MBC | MIC/MBC class at this concentration [5, 13]: MBC | MIC/MBC class at this concentration ([5]; 0.004% chlorhexidine spheres, 24 hours): MBC | MIC/MBC class at this concentration ([5]; 0.004% chlorhexidine spheres, 48 hours): MBC | MBC ([5]; 24 hours): 0.001% | MBC ([5]; 48 hours): 0.001% | threshold for inhibition (MIC) ([5]; F. nucleatum, time not stated): 0.001% | MIC ([5]; 24 hours): 0.0005% and 0.001% | MIC ([5]; 48 hours): 0.001%
